Laboratory results: PubChem BioAssay AID330 (DTP/NCI, 2004)
Several values for one entry are separate records, joined by “and”; a condition that tells them apart may be missing. Equal values may be shown once. Toxic doses and inconclusive results are not listed. The calls were made as follows: active = survival T/C of 150% or more; inactive = T/C below 125% in these data.

System: P388 leukemia ip, CD2F1 mice, survival T/C
Test: NCI In Vivo Anticancer Drug Screen. Data for tumor model P388 Leukemia (intraperitoneal) in CD2F1 (CDF1) mice
Conditions: endpoint: median survival time, higher = longer survival
Procedure, shortened: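 Mice carrying the transplanted tumor received test compound or vehicle. Survival was recorded in each group, and the value is the treated-group measurement divided by that of the vehicle-treated control group.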

[1] = dose: 50.0 mg/kg/injection, schedule: Q01DX005 (ip), vehicle: Klucel (hydroxypropylcellulose) (HPC)
[2] = dose: 50.0 mg/kg/injection, schedule: Q01DX009 (ip), vehicle: saline with Tween-80
[3] = dose: 100.0 mg/kg/injection, schedule: Q04DX002 (ip), vehicle: saline with Tween-80
[4] = dose: 50.0 mg/kg/injection, schedule: Q01DX005 (ip), vehicle: saline with Tween-80
[5] = dose: 100.0 mg/kg/injection, schedule: Q01DX005 (ip), vehicle: saline with Tween-80
[6] = dose: 200.0 mg/kg/injection, schedule: Q01DX005 (ip), vehicle: saline with Tween-80
[7] = dose: 100.0 mg/kg/injection, schedule: Q01DX005 (ip), vehicle: Klucel (hydroxypropylcellulose) (HPC)
[8] = dose: 200.0 mg/kg/injection, schedule: Q01DX005 (ip), vehicle: Klucel (hydroxypropylcellulose) (HPC)
[9] = dose: 100.0 mg/kg/injection, schedule: Q01DX009 (ip), vehicle: Klucel (hydroxypropylcellulose) (HPC)
[10] = dose: 200.0 mg/kg/injection, schedule: Q01DX009 (ip), vehicle: Klucel (hydroxypropylcellulose) (HPC)
[11] = dose: 6.25 mg/kg/injection, schedule: Q01DX009 (ip), vehicle: saline with Tween-80
[12] = dose: 12.5 mg/kg/injection, schedule: Q01DX009 (ip), vehicle: saline with Tween-80

Measured: T/C

CCCOC(=O)NC(C)C(=O)NC(CCC(=O)NC(CCCC(N)C(=O)O)C(=O)NC(C)C(=O)O)C(=O)O (stereo unspecified)
inactive: dose: 1.56 mg/kg/injection, schedule: Q01DX005 (ip), vehicle: Klucel (hydroxypropylcellulose) (HPC) 100 % of control | dose: 3.12 mg/kg/injection, schedule: Q01DX005 (ip), vehicle: Klucel (hydroxypropylcellulose) (HPC) 103 % of control | dose: 6.25 mg/kg/injection, schedule: Q01DX005 (ip), vehicle: Klucel (hydroxypropylcellulose) (HPC) 100 % of control | dose: 12.5 mg/kg/injection, schedule: Q01DX005 (ip), vehicle: Klucel (hydroxypropylcellulose) (HPC) 95 % of control and 96 % of control | dose: 25.0 mg/kg/injection, schedule: Q01DX005 (ip), vehicle: Klucel (hydroxypropylcellulose) (HPC) 86 % of control | [1] 100 % of control

C=CCC(C(=O)OC)c1cc(OC)c(OC)c(OC)c1 (stereo unspecified)
inactive: dose: 1.25 mg/kg/injection, schedule: Q01DX009 (ip), vehicle: saline 97 % of control | dose: 2.5 mg/kg/injection, schedule: Q01DX009 (ip), vehicle: saline 100 % of control | dose: 5.0 mg/kg/injection, schedule: Q01DX009 (ip), vehicle: saline 115 % of control

N#CC1CC2C=CC1C2 (stereo unspecified)
inactive: dose: 5.0 mg/kg/injection, schedule: Q01DX009 (ip), vehicle: saline sonified 109 % of control | dose: 10.0 mg/kg/injection, schedule: Q01DX009 (ip), vehicle: saline sonified 109 % of control | dose: 20.0 mg/kg/injection, schedule: Q01DX009 (ip), vehicle: saline sonified 90 % of control

CC(=O)O[C@@H]1CCC2CCC1N2C (stereo partly specified)
inactive: dose: 50.0 mg/kg/injection, schedule: Q01DX005 (ip), vehicle: saline 97 % of control | dose: 100.0 mg/kg/injection, schedule: Q01DX005 (ip), vehicle: saline 95 % of control | dose: 200.0 mg/kg/injection, schedule: Q01DX005 (ip), vehicle: saline 95 % of control

Cc1cc(CCNC=O)c(C)c2c1oc1ccccc12
inactive: [2] 110 % of control | dose: 100.0 mg/kg/injection, schedule: Q01DX009 (ip), vehicle: saline with Tween-80 103 % of control | dose: 200.0 mg/kg/injection, schedule: Q01DX009 (ip), vehicle: saline with Tween-80 94 % of control | dose: 400.0 mg/kg/injection, schedule: Q01DX009 (ip), vehicle: saline with Tween-80 94 % of control

O=C1OC(COCc2ccccc2)C/C1=C\c1ccc2c(c1)OCO2 (stereo unspecified)
inactive: [3] 95 % of control | dose: 200.0 mg/kg/injection, schedule: Q04DX002 (ip), vehicle: saline with Tween-80 86 % of control | dose: 400.0 mg/kg/injection, schedule: Q04DX002 (ip), vehicle: saline with Tween-80 86 % of control

O=C(Nc1nc(-c2ccccc2)cs1)OCC(Cl)(Cl)Cl
inactive: [4] 93 % of control | [5] 91 % of control | [6] 96 % of control

O=C1CS(=O)(=O)C(c2ccccc2)N1N1C(=O)CS(=O)(=O)C1c1ccccc1 (stereo unspecified)
inactive: [4] 104 % of control | [5] 104 % of control | [6] 92 % of control

Cc1nc2c(cnn2C)c(=O)n1C
inactive: [1] 111 % of control | [7] 111 % of control | [8] 111 % of control

Nc1ncnc2nc(N=Nc3c(O)ccc4ccccc34)[nH]c12
inactive: [4] 104 % of control | [5] 93 % of control

CCC1=C[C@@H]2C[C@](C(=O)OC)(c3cc4c(cc3OC)N(C)[C@H]3[C@@](O)(C(=O)OC)[C@H](OC(C)=O)[C@]5(CC)C=CCN6CC[C@]43[C@@H]65)c3[nH]c4ccccc4c3CCN(C1)C2=O
inactive: dose: 4.7 mg/kg/injection, schedule: Q01DX001 (ip), vehicle: other 113 % of control | dose: 9.4 mg/kg/injection, schedule: Q01DX001 (ip), vehicle: other 117 % of control
active: dose: 37.5 mg/kg/injection, schedule: Q01DX001 (ip), vehicle: suspension in saline 195 % of control

COC1/C=C/OC2(C)Oc3c(C)c(O)c4c(c3C2=O)C(=O)C([N+](=O)[O-])=C(NC(=O)C(C)=C/C=C\C(C)C(O)C(C)C(O)C(C)C(OC(C)=O)C1C)C4=O (stereo unspecified)
inactive: [9] 90 % of control | [10] 98 % of control

Cc1ccc(Nc2ccc(Cl)cc2[N+](=O)[O-])cc1
inactive: dose: 15.0 mg/kg/injection, schedule: Q01DX005 (ip), vehicle: Klucel + Tween-80 95 % of control | dose: 30.0 mg/kg/injection, schedule: Q01DX005 (ip), vehicle: Klucel + Tween-80 98 % of control | dose: 60.0 mg/kg/injection, schedule: Q01DX005 (ip), vehicle: Klucel + Tween-80 100 % of control and 94 % of control

S=C(Nc1ccccc1)Nc1ccc(N(CCCl)CCCl)cc1
inactive: dose: 100.0 mg/kg/injection, schedule: Q04DX003 (ip), vehicle: Klucel (hydroxypropylcellulose) (HPC) 106 % of control | dose: 200.0 mg/kg/injection, schedule: Q04DX003 (ip), vehicle: Klucel (hydroxypropylcellulose) (HPC) 114 % of control | dose: 400.0 mg/kg/injection, schedule: Q04DX003 (ip), vehicle: Klucel (hydroxypropylcellulose) (HPC) 111 % of control

O=[N+]([O-])c1ccc(S(=O)(=O)Cc2ccccc2)c2nonc12
inactive: dose: 3.12 mg/kg/injection, schedule: Q01DX009 (ip), vehicle: saline with Tween-80 99 % of control | [11] 107 % of control | [12] 100 % of control

Cc1cn(C2CC(O)C(CS)O2)c(=O)[nH]c1=O (stereo unspecified)
inactive: [4] 104 % of control | [5] 105 % of control | [6] 103 % of control

Cc1ccc(N=Cc2ccc(C=Nc3ccc(C)c(Cl)c3)cc2)cc1Cl
inactive: dose: 50.0 mg/kg/injection, schedule: Q01DX009 (ip), vehicle: Klucel (hydroxypropylcellulose) (HPC) 92 % of control | [9] 91 % of control | [10] 100 % of control

CC/C(=N\NC(=S)SC)c1ccccn1
inactive: dose: 6.25 mg/kg/injection, schedule: Q01DX005 (ip), vehicle: saline with Tween-80 106 % of control | dose: 12.5 mg/kg/injection, schedule: Q01DX005 (ip), vehicle: saline with Tween-80 94 % of control and 96 % of control and 97 % of control | dose: 25.0 mg/kg/injection, schedule: Q01DX005 (ip), vehicle: saline with Tween-80 105 % of control and 110 % of control and 94 % of control

Cc1ccc(SSc2ccc(C(C)(C)C)cc2)cc1
inactive: [1] 97 % of control | [7] 102 % of control | [8] 99 % of control

O=c1c(Br)cc2c(-c3ccccc3)c3cc(Br)c(O)c(Br)c3oc-2c1Br
inactive: dose: 60.0 mg/kg/injection, schedule: Q01DX005 (ip), vehicle: saline with Tween-80 97 % of control | dose: 120.0 mg/kg/injection, schedule: Q01DX005 (ip), vehicle: saline with Tween-80 97 % of control | dose: 240.0 mg/kg/injection, schedule: Q01DX005 (ip), vehicle: saline with Tween-80 110 % of control

COc1ccc(/C=C2\CCc3cc(OC)ccc3C2=O)cc1
inactive: dose: 6.25 mg/kg/injection, schedule: Q01DX009 (ip), vehicle: Klucel (hydroxypropylcellulose) (HPC) 117 % of control | dose: 12.5 mg/kg/injection, schedule: Q01DX009 (ip), vehicle: Klucel (hydroxypropylcellulose) (HPC) 117 % of control | dose: 25.0 mg/kg/injection, schedule: Q01DX009 (ip), vehicle: Klucel (hydroxypropylcellulose) (HPC) 115 % of control

COCCCN1CC(=O)N2Cc3ccccc3CN2C(=O)C1
inactive: [4] 98 % of control | [5] 98 % of control | [6] 103 % of control

CN(C)C12CCCCCCC1S(=O)(=O)C2 (stereo unspecified)
inactive: dose: 25.0 mg/kg/injection, schedule: Q04DX002 (ip), vehicle: saline with Tween-80 98 % of control | dose: 50.0 mg/kg/injection, schedule: Q04DX002 (ip), vehicle: saline with Tween-80 98 % of control | [3] 102 % of control and 96 % of control

NC(=O)c1nc[nH]c1F
inactive: [11] 102 % of control | [12] 102 % of control | dose: 25.0 mg/kg/injection, schedule: Q01DX009 (ip), vehicle: saline with Tween-80 103 % of control | [2] 104 % of control

O=C1OC(=O)C2C3C=CC(C4C=C(C5CC5)C43)C12 (stereo unspecified)
inactive: dose: 100.0 mg/kg/injection, schedule: Q04DX003 (ip), vehicle: saline 102 % of control | dose: 200.0 mg/kg/injection, schedule: Q04DX003 (ip), vehicle: saline 107 % of control | dose: 400.0 mg/kg/injection, schedule: Q04DX003 (ip), vehicle: saline 111 % of control

NC(=S)N/N=C/C=N/NC(N)=S
inactive: dose: 50.0 mg/kg/injection, schedule: Q01DX009 (ip), vehicle: saline 92 % of control | dose: 100.0 mg/kg/injection, schedule: Q01DX009 (ip), vehicle: saline 90 % of control | dose: 200.0 mg/kg/injection, schedule: Q01DX009 (ip), vehicle: saline 101 % of control
